Assay results taken from patent US10953004B2, “Combination therapy for proliferative diseases” (Avexxin AS, priority 2016, dated 2021).

Tested on: MDA-MB-468 cell line
Assay: Resazurin viability assay
Type: cell-based, human
Conditions: MDA-MB-468 cells
Procedure: Cell Culture. The MDA-MB-468 cell line was from ATCC. This cell line was established from a pleural effusion of patient with metastatic breast adenocarcinoma. The cells were maintained in RPMI medium supplemented with 10% (v/v) FBS, 0.3 mg/mL L-glutamine, and 0.1 mg/mL gentamicin at 37° C. in 5% CO2. Sub-culture using trypsin-EDTA was performed every 3-4 days with a split ratio of 1:3-1:6 to ensure actively proliferating cells. Resazurin Viability Assay. Cells were seeded in fully supplemented medium at a density of 7 000 cells per well in 96 well plates. After 24 hrs of cultivation, when the cells were 60% confluent, the medium was replaced with serum free medium to ensure synchronization of the cells and to increase cell sensitivity to treatment. Following 16 hrs of serum starvation, the medium was replaced with fresh serum free medium with or without Compound […], Norway), and NVP-BEZ235 (Cayman Chemicals, US) or solvent (DMSO, Sigma Aldrich, US). The cells were observed under the microscope to evaluate possible morphology changes and signs of stress before the addition of resazurin according to the manufacturers instructions (RnD Systems, UK). Resazurin was metabolized for 2 hrs (37° C., 5% CO2) before fluorescence was read at 544 nm excitation and 590 nm emission wavelengths (BioTek Synergy HT).

`Cn1c(=O)n(-c2ccc(C(C)(C)C#N)cc2)c2c3cc(-c4cnc5ccccc5c4)ccc3ncc21` [BEZ235] was tested. Which cytotoxicity at 5 µM (Homo sapiens, serum free medium, 5 μM of each inhibitor, 24 hrs of treatment, read-out: reduction of viability) did it give?
Its cytotoxicity at 5 µM is about 30%.

And the “toxicity to the cells, each inhibitor alone (initial experiments)” value (25-100 μM, results not shown)?
Its value is “toxic”.

What about the “signs of cellular stress or cytotoxicity, each inhibitor alone (initial experiments)” value (doses 1-5 μM, results not shown) of the same compound?
The value was “little or no signs of cellular stress of cytotoxicity”.
